Among the data in patent US20240228488A1 (TAKEDA PHARMACEUTICAL COMPANY LIMITED, priority 2021, published 2024) are EC50 values, retold here.

The structures appear in SMILES notation. pEC50: −log10 of the molar value.

human activated kallikrein enzyme, sequence (P03952 391-638 limits assumed): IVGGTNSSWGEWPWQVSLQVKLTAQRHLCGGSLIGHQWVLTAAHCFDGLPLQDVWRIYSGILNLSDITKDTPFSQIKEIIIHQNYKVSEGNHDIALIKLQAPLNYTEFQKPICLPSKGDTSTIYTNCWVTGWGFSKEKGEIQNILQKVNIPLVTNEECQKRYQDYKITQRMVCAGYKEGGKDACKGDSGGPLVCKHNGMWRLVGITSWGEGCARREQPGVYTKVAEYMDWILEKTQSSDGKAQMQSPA
human activated kallikrein enzyme, sequence (P03952 20-390 partner limits assumed): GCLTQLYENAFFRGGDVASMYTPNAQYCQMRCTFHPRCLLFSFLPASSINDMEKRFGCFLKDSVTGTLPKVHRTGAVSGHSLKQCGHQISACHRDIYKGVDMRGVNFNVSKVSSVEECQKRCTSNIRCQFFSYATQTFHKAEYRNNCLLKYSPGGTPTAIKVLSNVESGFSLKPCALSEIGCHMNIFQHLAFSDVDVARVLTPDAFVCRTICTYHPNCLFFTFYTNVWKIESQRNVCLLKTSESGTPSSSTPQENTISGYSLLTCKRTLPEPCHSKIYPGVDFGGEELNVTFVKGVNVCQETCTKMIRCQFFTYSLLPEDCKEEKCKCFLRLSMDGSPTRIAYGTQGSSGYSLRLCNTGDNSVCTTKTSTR

This assay has as its target human activated kallikrein enzyme (Homo sapiens, UniProt P03952). In words: Plasma kallikrein inhibition, fluorogenic PFR-AMC substrate, 500 pM activated kallikrein format. Format: biochemical. The following applies: 500 pM activated kallikrein, 300 uM PFR-AMC, 30 min preincubation, 10 min reaction; read-out: Primary Dose Response Assay: Average EC50. As for the experimental part:
Compounds were evaluated for inhibition of the human activated kallikrein enzyme in two formats of an assay employing a fluorogenic peptide substrate. In one assay format, the concentrations of reagents were as follows: 20 mM Tris pH 7.5, 1 mM EDTA, 150 mM sodium chloride, 0.1% PEG-400, 0.1% Triton X-100, 500 pM activated kallikrein enzyme, 300 uM Pro-Phe-Arg-7-amido-4-methylcoumarin (PFR-AMC) substrate. Prior to reaction initiation with substrate, enzyme and inhibitors were preincubated for 30 min at room temperature. After initiation with substrate, reactions were incubated for 10 min at room temperature and fluorescence emission at 460 nm from 380 nm excitation measured with a microplate reader. In another assay format, the concentrations of reagents were as follows: 20 mM Tris pH 7.5, 1 mM EDTA, 150 mM sodium chloride, 0.1% PEG-400, 0.1% Triton X-100, 5 pM activated kallikrein enzyme, 300 uM PFR-AMC substrate. Prior to reaction initiation with substrate, enzyme and inhibitors were preincubated for 30 min at room temperature. After initiation with substrate, reactions were incubated for 18 hr at room temperature and fluorescence emission at 460 nm from 380 nm excitation measured with a microplate reader.
Table 49 provides the results of the assay in the format with 500 pM activated kallikrein assay. For the compounds listed in Table 49, the EC50 values are reported according to the following ranges: A≤1.0 nM; 1.0 nM<B≤10 nM; 10 nM<C≤100 nM; 100 nM<D≤1000 nM; 1000 nM<E≤6000 nM; 6000 nM<F.
Table 51 provides comparative plasma kallikrein inhibition potency in the assay format with 500 pM activated kallikrein assay (described in detail in a preceding example). For the compounds listed in Table 51, the EC50 values are reported according to the following ranges: A≤1.0 nM; 1.0 nM<B≤10 nM; 10 nM<C≤100 nM; 100 nM<D≤1000 nM; 1000 nM<E≤6000 nM; 6000 nM<F.
A word on the pEC50: it is the EC50 on a negative log10 scale, so that one unit is a factor of ten. For `Cc1ccnc([C@H]2C[C@@H]2C(=O)Nc2cc(N[C@H](C)c3cn4cc(C(C)F)cc(N5CC(=O)N(C)C5=O)c4n3)ncn2)n1` (stereo partly drawn) [Example 530, (1S,2S)-N-(6-(((1R)-1-(6-(1-fluoroethyl)-8-(3-methyl-2,4-dioxoimidazolidin-1-yl)imidazo[1,2-a]pyridin-2-yl)ethyl)amino)pyrimidin-4-yl)-2-(4-methylpyrimidin-2-yl)cyclopropane-1-carboxamide], the negative-log EC50 (pEC50) was more than 9.00.
The result for `O=C(Nc1cc(NCc2cn3cc(C4CC4)ccc3n2)ccn1)[C@@H]1C[C@H]1c1cccc(Cl)c1` (racemic) [Example 115, rac-(1S*,2S*)-2-(3-chlorophenyl)-N-(4-(((6-cyclopropylimidazo[1,2-a]pyridin-2-yl)methyl)amino)pyridin-2-yl)cyclopropane-1-carboxamide] reads 8.00 to 9.00; that for `O=C(Nc1cc(NCc2cn3cc(C4CC4)cc(N4CCN(CC(F)(F)F)CC4)c3n2)ccn1)[C@H]1C[C@@H]1c1cccc(Cl)c1` (racemic) [Example I-20], 8.00 to 9.00; that for `COc1cc([C@H]2C[C@@H]2C(=O)Nc2cc(NCc3cn4cc(C5CC5)ccc4n3)ncn2)cc(N)n1` (racemic) [Example 277, rac-(1S*,2S*)-2-(2-amino-6-methoxypyridin-4-yl)-N-(6-(((6-cyclopropylimidazo[1,2-a]pyridin-2-yl)methyl)amino)pyrimidin-4-yl)cyclopropane-1-carboxamide], 6.00 to 7.00.
As to `Cc1ccnc([C@H]2C[C@@H]2C(=O)Nc2ncnc3nn(Cc4cn5cc(C6CC6)cc(N6CC(=O)N(C)C6=O)c5n4)cc23)n1` (racemic) [Example 632, rac-(1S*,2S*)—N-(2-((6-cyclopropyl-8-(3-methyl-2,4-dioxoimidazolidin-1-yl)imidazo[1,2-a]pyridin-2-yl)methyl)-2H-pyrazolo[3,4-d]pyrimidin-4-yl)-2-(4-methylpyrimidin-2-yl)cyclo propane-1-carboxamide], the pEC50 is more than 9.00.
Take `Cc1ccnc([C@H]2C[C@@H]2C(=O)Nc2ccc(C#N)c(OCc3cn4cc(C5CC5)cc(N5CC(=O)N(C)C5=O)c4n3)c2)n1` [Example 669, (1S,2S)—N-(4-cyano-3-((6-cyclopropyl-8-(3-methyl-2,4-dioxoimidazolidin-1-yl)imidazo[1,2-a]pyridin-2-yl)methoxy)phenyl)-2-(4-methylpyrimidin-2-yl)cyclopropane-1-carboxamide]: the pEC50 is more than 9.00.
Take `O=C(Nc1cc(NCc2cn3cc(C4CC4)ccc3n2)ccn1)[C@H]1[C@H](CO)[C@@H]1c1cccc(Cl)c1` (racemic) [Example I-213, rac-(1R*,2S*,3R*)-2-(3-chlorophenyl)-N-(4-(((6-cyclopropylimidazo[1,2-a]pyridin-2-yl)methyl)amino)pyridin-2-yl)-3-(hydroxymethyl)cyclopropane-1-carboxamide]: the pEC50 was 8.00 to 9.00.
Under `Cc1ccnc([C@H]2C[C@@H]2C(=O)Nc2cc(O[C@@H](C)c3cn4cc(C5CC5)cc(N5CC(=O)N(C)C5=O)c4n3)cnn2)n1` (single isomer, unassigned) [Example 41] stands 7.00 to 8.00; under `O=C(Nc1cc(N2C[C@@H](CO)C[C@@H]2c2cn3cc(C4CC4)ccc3n2)ncn1)[C@H]1C[C@@H]1c1cc(Cl)ccn1` [Example 442, (1S,2S)-2-(4-chloropyridin-2-yl)-N-(6-((2R,4S)-2-(6-cyclopropylimidazo[1,2-a]pyridin-2-yl)-4-(hydroxymethyl)pyrrolidin-1-yl)pyrimidin-4-yl)cyclopropane-1-carboxamide], 5.22 to 6.00; under `N#Cc1ccc(Cl)cc1C1CC1C(=O)Nc1cc(NCc2cn3cc(C4CC4)cc(N4CCCC4=O)c3n2)ncn1` (centres unmarked) [Example 335], 6.00 to 7.00.
For the molecule `COc1ccc(C#N)c([C@H]2C[C@@H]2C(=O)Nc2cc(NCc3cn4cc(C5CC5)ccc4n3)ccn2)c1` (racemic) [Example I-206, rac-(1S*,2S*)-2-(2-cyano-5-methoxyphenyl)-N-(4-(((6-cyclopropylimidazo[1,2-a]pyridin-2-yl)methyl)amino)pyridin-2-yl)cyclopropane-1-carboxamide], the pEC50 was 7.00 to 8.00.
